Measured values published in publication PMC12349723, “Computationally accelerated identification of P-glycoprotein inhibitors” (PLOS One, 2025).
Several values for one entry are separate records, joined by “and”; a condition that tells them apart may be missing. Equal values may be shown once.

Legend:
[1] = Resazurin cell viability pre-screen in DU145-TXR cells with or without PTX; type: cell-based; settings: human, mean of two experiments in triplicate, read-out: Viability, 15 µM compound alone
Method: Culture of the DU145, DU145-TXR, and HFL1 cell lines was performed as described in [8]. Culture of the A2780 and A2780-ADR cell lines was performed as described in [9]. MTT assays were performed as described in [8] with minor modifications. LC-MS/MS accumulation assays were performed as described in {Nanayakkara, 2018 #173} [9] with some modifications. […] The inhibitor concentration was lowered to 15 µM here, as the goal of the study was to identify compounds that were effective in reversing MDR at low concentrations, and to determine if the expanded virtual-assisted methods improved on our first-draft attempt. Compounds 56–98 were pre-screened using Resazurin cell viability assays: cells were incubated with 15 µM compound with or without 500 nM PTX for 48 hours, after which cell survival was assessed similar to [39]. Data represent the mean of two separate experiments, with n = 3 samples per experiment (n = 6 total) (S4 Table). The top performing compounds from this initial screen were re-tested with MTT viability assays against DU145-TXR cells, as described below.
S4 Table. Pre-screening of compounds 56 – 98 against DU145-TXR cells with resazurin assays. DU145-TXR cells were incubated with 15 µM compound with or without 500nM PTX for 48 hrs; survival was subsequently determined with the Resazurin viability assay ^[37]. […] Percent re-sensitization is defined as the percent change in viability between cells treated with compound and PTX, versus cells treated with PTX alone. In some instances, the assay reported an increase in viability with compound + PTX, and no percent sensitization is reported. ‘Follow-up Testing’ compounds were re-assessed with MTT assays (Figure 1). Compounds 59 and 89 (*, ‘Follow-up Testing’) were used as negative controls in follow-up MTT assays to test for consistency of results, e.g. to confirm that molecules eliminated in Resazurin assays were justifiably eliminated from later screening with MTT assays.

[2] = tested on: HFL1 (human lung fibroblast) cell line; experiment: MTT viability assay, inherent toxicity in non-cancerous HFL1 cells; type: cell-based; design: Mean % Survival: tested at 15 µM; settings: for Inherent toxicity to non-cancerous HFL1 cells: 15 µM compound, 48 h, MTT, 20% reduction in viability = maximum acceptable toxicity; for Mean % Survival / % Survival (individual sample): HFL1 cells, compound alone; for Mean % Survival: mean of 8 samples; for % Survival (individual sample): single samples (trials 1-2, samples 1-4)
Method: The chemotherapeutic sensitive DU145 human prostate cancer cells and the multidrug resistant sub-line, DU145-TXR, were generous gifts from Dr. Evan Keller (University of Michigan, Ann Arbor, MI). The MDR, P-gp overexpressing DU145-TXR cells were maintained under positive selection pressure by supplementing complete medium with 10 nM paclitaxel (Acros Organics, NJ). […] The MDR, P-gp overexpressing A2780-ADR cell line was maintained under positive selection pressure by supplementing complete medium with 100 nM doxorubicin (Fisher Scientific, NJ). The non-cancerous HFL1 (human lung fibroblast) cell line cell line was a generous gift from Dr. Robert Harrod (Southern Methodist University, Dallas, TX) and was maintained in complete F12K media consisting of F12K with 10% fetal bovine serum, 100 U/mL penicillin, and 100 µg/mL streptomycin (Gibco). Flasks and 96 well plates that were used with the non-cancerous line HFL1 were pre-treated with 0.1 mg/ml Collagen Type 1 (Gibco) and rinsed with PBS (Fisher).
MTT assays measure the reduction of yellow, water soluble 3-(4,5-dimethylthiazol-2-yl)-2,5-diphenyltetrazolium bromide (MTT) to blue, insoluble formazan crystals by cellular reductase processes in living cells. Cells were trypsinized from monolayers and seeded in complete medium in 96 well plates. Cancerous cell lines (DU145, DU145-TXR, A2780, A2780-ADR) were seeded at 3,000 cells per well in complete RPMI medium. The non-cancerous HFL1 line was seeded at 4,000 cells per well in complete F12K medium, in collagen-treated plates (Collagen Type 1, Gibco). Cells were incubated with experimental compounds for 48 hours at 37 °C and 5% CO2 in a humidified incubator. At 48 hours, MTT was added (20 µL/well of 5 mg/mL MTT in PBS) to each well. After incubation for 4 hours, the media was removed, and the formazan crystals were dissolved in 100 µL DMSO per well. Plates containing the semi-adherent A2780 or A2780-ADR lines were spun at 1400 rpm for 3 minutes prior to aspiration of media, and the addition of DMSO. Plates were shaken for 10 minutes at 500 rpm on an Orbital shaker (LabDoctor from MidSci, St Louis, MO). The absorbance was measured at 570 nm using a Bio-Tek Cytation 5 (Bio-Tek, Winooski, VT). The measured absorbance value was correlated with the number of metabolically active cells in that well, corrected for absorbance of media. The percent of cell viability (termed ‘survival’ here) was calculated as a percentage of survival of the control condition, which refers to vehicle-treated (DMSO as vehicle) cells, or vehicle-and-chemotherapeutic-treated cells, if testing a compound’s ability to re-sensitize cells to a chemotherapeutic. Percent survival was calculated using the following equation:
% Survival=100 × absorbance of experimental cells/mean absorbance of control treated cells
For DU145-TXR, DU145, HFL1 and A2780 cells – data are the mean ± one standard deviation, 8 samples per compound, from at least two independent trials per compound. […] For A2780-ADR cells, data are the mean ± one standard deviation with 12 samples per compound, from at least two independent trials per compound.
If a P-gp inhibitor is intrinsically toxic to non-cancerous cells, it is more likely to be participating in undesirable off-target interactions. The top compounds from the screens shown above were screened for inherent toxicity using the non-cancerous HFL1 (human lung fibroblast) cell line. HFL1 cells were incubated with 15 µM compound for 48 hours, after which cell viability was assessed using MTT cell viability assays. A 20% reduction in cell viability (compared to DMSO-treated cells) was considered the maximum acceptable toxicity (see dotted line). The chemotherapeutic daunorubicin was included as a positive control for toxicity.
The top compounds from previous screens were tested against the non-cancerous HFL1 cell line.

SMILES | viability at 48 h, 15 µM [1] | Inherent toxicity to non-cancerous HFL1 cells [2] | Mean % Survival [2] | % Survival (individual sample) [2]
Nc1nonc1-n1nnc(C(=O)N/N=C/c2c3ccccc3cc3ccccc23)c1COc1ccc(F)cc1 [Compound 60, Nc1nonc1-n1nnc(C(=O)N\N=C\c2c3ccccc3cc3ccccc23)c1COc1ccc(F)cc1] | 88% |  |  | 
NS(=O)(=O)c1cccc(NC(=O)CSc2nnnn2C2CC2)c1 [Compound 89, NS(=O)(=O)c1cccc(NC(=O)CSc2nnnn2C2CC2)c1] | 93.7% |  |  | 
O=S(=O)(CCSc1nnc(-c2ccccc2)c2ccccc12)c1ccccc1 [Compound 96, O=S(=O)(CCSc1nnc(-c2ccccc2)c2ccccc12)c1ccccc1] | 89.4% | either ‘non-toxic’ or ‘within acceptable limits’ of toxicity | 92.7% | 91%
Cn1cnnc1SCc1c(C(=O)O)nnn1-c1nonc1N [Compound 59, Cn1cnnc1SCc1c(nnn1-c1nonc1N)C(O)=O] | 101% |  |  | 
CCN1CCN(Cc2c(C(=O)N/N=C3/C(=O)N(C)c4ccccc43)nnn2-c2nonc2N)CC1 [Compound 61, CCN1CCN(Cc2c(nnn2-c2nonc2N)C(=O)N\N=C2\C(=O)N(C)c3ccccc23)CC1] | 98.8% |  |  | 
O=C(c1nc(-c2ccccn2)no1)N1CCN(c2nsc3ccccc23)CC1 [Compound 124, O=C(N1CCN(CC1)c1nsc2ccccc12)c1nc(no1)-c1ccccn1] |  | either ‘non-toxic’ or ‘within acceptable limits’ of toxicity | 84.6% | 89%
O=C(NCc1cccc(F)c1)c1nnn2c1Sc1c(C(=O)NCc3cccc(F)c3)nnn1CC2 [Compound 122, Fc1cccc(CNC(=O)c2nnn3CCn4nnc(C(=O)NCc5cccc(F)c5)c4Sc23)c1] |  | either ‘non-toxic’ or ‘within acceptable limits’ of toxicity | 79.7% | 
O=C(c1cc2ccccc2[nH]1)N1CCN(S(=O)(=O)c2cccc3nonc23)CC1 [Compound 66, O=C(N1CCN(CC1)S(=O)(=O)c1cccc2nonc12)c1cc2ccccc2[nH]1] | 98.3% |  |  | 
O=C(c1nc(-c2ccc3cc[nH]c3c2)no1)N1CCN(c2nsc3ccccc23)CC1 [Compound 70, O=C(N1CCN(CC1)c1nsc2ccccc12)c1nc(no1)-c1ccc2cc[nH]c2c1] | 99.2% | either ‘non-toxic’ or ‘within acceptable limits’ of toxicity | 81.4% | 81% and 85%
Cc1onc(-c2ccccc2)c1-c1nnc(Cn2cnc3ccccc3c2=O)o1 [Compound 111, Cc1onc(c1-c1nnc(Cn2cnc3ccccc3c2=O)o1)-c1ccccc1] |  | either ‘non-toxic’ or ‘within acceptable limits’ of toxicity | 96.0% | 92%
COc1cc2c(cc1OC)CN(CCc1ccc(NC(=O)c3cc(OC)c(OC)cc3NC(=O)c3cnc4ccccc4c3)cc1)CC2 [Tariquidar, reference compound] | 75.2% |  |  | 
COc1cccc(N2CCN(c3ccc4nnc(CCC(=O)Nc5ccc(F)c(F)c5)n4n3)CC2)c1 [Compound 101, COc1cccc(c1)N1CCN(CC1)c1ccc2nnc(CCC(=O)Nc3ccc(F)c(F)c3)n2n1] |  | either ‘non-toxic’ or ‘within acceptable limits’ of toxicity | 100.9% | 103%
COc1ccc(OC)c(NC(=O)c2nnn(-c3ccc4noc(-c5ccccc5)c4c3)c2C)c1 [Compound 71, COc1ccc(OC)c(NC(=O)c2nnn(c2C)-c2ccc3noc(-c4ccccc4)c3c2)c1] | 93% |  |  | 
Cc1ccc(-c2noc(-c3cn(Cc4ccc(NS(=O)(=O)c5ccccc5F)cc4)cn3)n2)cc1 [Compound 103, Cc1ccc(cc1)-c1noc(n1)-c1cn(Cc2ccc(NS(=O)(=O)c3ccccc3F)cc2)cn1] |  | either ‘non-toxic’ or ‘within acceptable limits’ of toxicity | 93.4% | 
Cc1onc(-c2ccccc2)c1-c1nnc(Cn2cnc3c(oc4ccccc43)c2=O)o1 [Compound 78, Cc1onc(c1-c1nnc(Cn2cnc3c4ccccc4oc3c2=O)o1)-c1ccccc1] | 95.2% | either ‘non-toxic’ or ‘within acceptable limits’ of toxicity | 99.6% | 102%
O=S(=O)(Cc1nc2ccccc2n1CC(O)c1ccc(Cl)cc1)c1ccccc1 (stereo not drawn) [Compound 97, OC(Cn1c(CS(=O)(=O)c2ccccc2)nc2ccccc12)c1ccc(Cl)cc1] | 102% | either ‘non-toxic’ or ‘within acceptable limits’ of toxicity | 84.9% | 85%
